Laboratory results reported in ChEMBL document CHEMBL1158604, “New pyrazolo[1,5a]pyrimidines as orally active inhibitors of Lck” (Bioorg Med Chem Lett, 2010).
Each block holds one compound with its values, some of them ahead of it. Calls of active or inactive are those of the source. The calls are words filed in the database; no cut-off is given here.

Legend:
[1] = Oral bioavailability in rat; format: ADME, organism-based; conditions: in vivo
[2] = system: Mus musculus; assay: Immunosuppressive activity in BALB/c mouse assessed as concanavalin A-induced T cell activation at 100 mg/kg, po relative to control; format: functional, organism-based; set-up: dose 100 mg/kg
[3] = system: Mus musculus; assay: Immunosuppressive activity in BALB/c mouse assessed as CD3 antibody-induced IL2 production at 100 mg/kg, po relative to control; format: functional
[4] = system: Mus musculus; assay: Immunosuppressive activity in BALB/c mouse assessed as CD3 antibody-induced IL2 production at 30 mg/kg, po relative to control; format: functional
[5] = system: Mus musculus; assay: Immunosuppressive activity in BALB/c mouse assessed as CD3 antibody-induced IL2 production at 10 mg/kg, po relative to control; format: functional
[6] = target: Cyclin-dependent kinase 2/cyclin A (Homo sapiens, UniProt P24941); assay: Inhibition of CDK2/cyclinA; format: protein-complex assay
[7] = target: T1, Tyrosine-protein kinase Lck (Homo sapiens, UniProt P06239); assay: Inhibition of LCK in human Jurkat cells assessed as ZAP70 phosphorylation by FACS assay; format: cell-based
[8] = Clearance in rat; format: ADME, organism-based; conditions: in vivo
[9] = Half life in rat; format: ADME, organism-based; conditions: in vivo
[10] = target: Angiopoietin-1 receptor (Homo sapiens, UniProt Q02763); assay: Inhibition of tie2
[11] = target: Tyrosine-protein kinase ABL1 (Homo sapiens, UniProt P00519); assay: Inhibition of ABL
[12] = Inhibition of cABL T315 mutant
[13] = target: ALK tyrosine kinase receptor (Homo sapiens, UniProt Q9UM73); assay: Inhibition of Alk
[14] = target: Fibroblast growth factor receptor 3 (Homo sapiens, UniProt P22607); assay: Inhibition of FGFR3K
[15] = target: Receptor tyrosine-protein kinase erbB-2 (Homo sapiens, UniProt P04626); assay: Inhibition of Her2
[16] = target: Insulin-like growth factor 1 receptor (Homo sapiens, UniProt P08069); assay: Inhibition of IGF1R
[17] = target: Insulin receptor (Homo sapiens, UniProt P06213); assay: Inhibition of INSR
[18] = target: Tyrosine-protein kinase JAK1 (Homo sapiens, UniProt P23458); assay: Inhibition of JAK1
[19] = target: Tyrosine-protein kinase JAK2 (Homo sapiens, UniProt O60674); assay: Inhibition of JAK2
[20] = target: Tyrosine-protein kinase JAK3 (Homo sapiens, UniProt P52333); assay: Inhibition of JAK3
[21] = target: Mast/stem cell growth factor receptor Kit (Homo sapiens, UniProt P10721); assay: Inhibition of cKIt
[22] = target: Hepatocyte growth factor receptor (Homo sapiens, UniProt P08581); assay: Inhibition of cMet
[23] = target: Platelet-derived growth factor receptor alpha (Homo sapiens, UniProt P16234); assay: Inhibition of PDGFRalpha
[24] = target: RAC-alpha serine/threonine-protein kinase (Homo sapiens, UniProt P31749); assay: Inhibition of PKBalpha
[25] = target: Proto-oncogene tyrosine-protein kinase receptor Ret (Homo sapiens, UniProt P07949); assay: Inhibition of Ret
[26] = target: Tyrosine-protein kinase ZAP-70 (Homo sapiens, UniProt P43403); assay: Inhibition of ZAP70
[27] = Volume of distribution in rat; format: ADME, organism-based; conditions: in vivo
[28] = target: T1, Tyrosine-protein kinase Lck
[29] = target: Proto-oncogene tyrosine-protein kinase Src (Homo sapiens, UniProt P12931)
[30] = target: Tyrosine-protein kinase HCK (Homo sapiens, UniProt P08631)
[31] = target: Vascular endothelial growth factor receptor 2 (Homo sapiens, UniProt P35968)
[32] = system: Liver microsomes; conditions: rat
Description: Clearance in rat liver microsomes

[33] = in vitro; conditions: rat, liver microsomes
Description: Half life in rat liver microsomes

IC50 [28]: 0.03 µM | IC50 [29]: 0.442 µM | IC50 [30]: 0.342 µM | IC50 [31]: 0.47 µM
SMILES: CN1CCN(c2cccc(-c3cnn4c(N)c(-c5ccc(O)cc5)cnc34)c2)CC1

IC50 [28]: 0.037 µM | IC50 [29]: 1 µM | IC50 [30]: 0.349 µM | IC50 [31]: 2.2 µM
SMILES: COCCN1CCN(c2ccc(-c3cnn4c(N)c(-c5ccc(NC(=O)OCC(C)C)cc5)cnc34)cc2)CC1

IC50 [28]: 0.209 µM | IC50 [29]: > 1 µM | IC50 [30]: 0.676 µM | IC50 [31]: > 10 µM | CL [32]: 58.4 µL/min | half-life [33]: 23.7 min
SMILES: CC(C)COC(=O)Nc1ccc(-c2cnc3c(-c4cccc(N5CCN(S(C)(=O)=O)CC5)c4)cnn3c2N)cc1

IC50 [29]: 1 µM | IC50 [30]: 0.256 µM | IC50 [31]: 8.3 µM
SMILES: CN1CCN(c2ccc(-c3cnn4c(N)c(-c5ccc(NC(=O)c6ccc(C(F)(F)F)cc6)cc5)cnc34)cc2)CC1

IC50 [29]: > 1 µM | IC50 [30]: 0.215 µM
SMILES: CN1CCN(c2ccc(-c3cnn4c(N)c(-c5ccc(NC(=O)Nc6ccccc6Cl)cc5)cnc34)cc2)CC1

IC50 [28]: 0.008 µM | IC50 [29]: 0.002 µM | IC50 [30]: 0.008 µM | IC50 [31]: 0.096 µM
SMILES: CN1CCN(c2ccc(-c3cnn4c(N)c(-c5cccc(O)c5)cnc34)cc2)CC1

IC50 [28]: 0.007 µM | IC50 [29]: 0.762 µM | IC50 [30]: 0.27 µM | IC50 [31]: 1.9 µM | CL [32]: 11.2 µL/min | half-life [33]: 124 min
SMILES: CC(C)COC(=O)Nc1ccc(-c2cnc3c(-c4cccc(N5CCN(C(=O)CN)CC5)c4)cnn3c2N)cc1

IC50 [29]: 0.497 µM | IC50 [30]: 0.178 µM | IC50 [31]: 0.435 µM
SMILES: CN1CCN(c2ccc(-c3cnn4c(N)c(-c5ccc(NC(=O)N(C)C6CCCCC6)cc5)cnc34)cc2)CC1

IC50 [28]: 0.036 µM | IC50 [29]: 0.396 µM | IC50 [30]: 0.085 µM | IC50 [31]: 1.3 µM
SMILES: CN1CCN(c2ccc(-c3cnn4c(N)c(-c5ccc(O)cc5)cnc34)cc2)CC1

IC50 [28]: 0.028 µM | IC50 [29]: > 1 µM | IC50 [30]: > 1 µM | IC50 [31]: 5.4 µM
SMILES: CN1CCN(c2cccc(-c3cnn4c(N)c(-c5ccc(NS(=O)(=O)c6cccc(Cl)c6Cl)cc5)cnc34)c2)CC1

IC50 [29]: 0.554 µM | IC50 [30]: 0.11 µM | IC50 [31]: 6 µM
SMILES: CN1CCN(c2cccc(-c3cnn4c(N)c(-c5ccc(NC(=O)N(C)C6CCCCC6)cc5)cnc34)c2)CC1

IC50 [29]: 0.227 µM | IC50 [30]: 0.07 µM | IC50 [31]: 0.13 µM
SMILES: CN1CCN(c2cccc(-c3cnn4c(N)c(-c5ccc(NC(=O)NCC6CCCCC6)cc5)cnc34)c2)CC1

IC50 [28]: 0.023 µM | IC50 [29]: 0.462 µM | IC50 [30]: 0.456 µM | IC50 [31]: 3.4 µM
SMILES: Cc1cc(NC(=O)OCC(C)C)ccc1-c1cnc2c(-c3cccc(N4CCN(C)CC4)c3)cnn2c1N

More lines, now with the values behind:

SMILES: CC(C)COC(=O)Nc1ccc(-c2cnc3c(-c4ccc(N5CCN(C)CC5)cc4)cnn3c2N)cc1
bioavailability [1]: 95% | Activity [2]: Active | inhibition in vivo at 100 mg/kg [3]: 57% | inhibition in vivo at 30 mg/kg [4]: 21% | inhibition in vivo at 10 mg/kg [5]: -7% | IC50 [6]: > 10 µM | IC50 [7]: 0.107 µM | clearance [8]: 1.93 L/h/kg | half-life [9]: 342 min | IC50 [10]: 1 µM | IC50 [11]: 0.04 µM | IC50 [12]: 3.25 µM | IC50 [13]: > 10 µM | IC50 [14]: > 10 µM | IC50 [15]: > 10 µM | IC50 [16]: > 10 µM | IC50 [17]: > 10 µM | IC50 [18]: > 10 µM | IC50 [19]: > 10 µM | IC50 [20]: > 10 µM | IC50 [21]: 0.089 µM | IC50 [22]: > 10 µM | IC50 [23]: 0.074 µM | IC50 [24]: > 10 µM | IC50 [25]: 4.7 µM | IC50 [26]: > 10 µM | Vd [27]: 6.42 L/kg | IC50 [28]: 0.022 µM | IC50 [29]: 0.662 µM | IC50 [30]: 0.181 µM | IC50 [31]: 4.23 µM | CL [32]: 161.2 µL/min | half-life [33]: 8.6 min

SMILES: Cc1nc2c(-c3cccc(N4CCN(C)CC4)c3)cnn2c(N)c1-c1ccc(NC(=O)OCC(C)C)cc1
IC50 [28]: 0.116 µM | IC50 [29]: > 1 µM | IC50 [30]: > 1 µM | IC50 [31]: > 10 µM

SMILES: CN1CCN(c2cccc(-c3cnn4c(N)c(-c5ccc(NC(=O)c6ccc(C(F)(F)F)cc6)cc5)cnc34)c2)CC1
IC50 [29]: > 1 µM | IC50 [30]: 0.295 µM | IC50 [31]: 2.3 µM

SMILES: CN1CCN(c2ccc(-c3cnn4c(N)c(-c5ccc(NC(=O)NCC6CCCCC6)cc5)cnc34)cc2)CC1
IC50 [29]: 0.143 µM | IC50 [30]: 0.021 µM

SMILES: CN1CCN(c2cccc(-c3cnn4c(N)c(-c5ccc(NC(=O)Nc6ccccc6Cl)cc5)cnc34)c2)CC1
IC50 [29]: 1 µM | IC50 [30]: 0.172 µM

SMILES: CN1CCN(c2ccc(-c3cnn4c(N)c(-c5ccc(NC(=O)Oc6ccccc6)cc5)cnc34)cc2)CC1
IC50 [29]: 0.394 µM | IC50 [30]: 0.088 µM | IC50 [31]: 1 µM

SMILES: Cc1nn2c(N)c(-c3cccc(O)c3)cnc2c1-c1ccc(N2CCN(C)CC2)cc1
IC50 [28]: > 1 µM | IC50 [29]: > 1 µM | IC50 [30]: > 1 µM | IC50 [31]: 0.5 µM

SMILES: CN1CCN(c2cccc(-c3cnn4c(N)c(-c5ccc(NC(=O)CCC6CCCC6)cc5)cnc34)c2)CC1
IC50 [29]: 0.135 µM | IC50 [30]: 0.037 µM | IC50 [31]: 0.69 µM

SMILES: CC(C)COC(=O)Nc1ccc(-c2cnc3c(-c4cccc(N5CCNCC5)c4)cnn3c2N)cc1
IC50 [28]: 0.007 µM | IC50 [29]: 0.642 µM | IC50 [30]: 0.31 µM | IC50 [31]: 2.1 µM | CL [32]: 29 µL/min | half-life [33]: 48 min

SMILES: CN1CCN(c2cccc(-c3cnn4c(N)c(-c5ccc(NC(=O)Oc6ccccc6)cc5)cnc34)c2)CC1
IC50 [29]: 0.688 µM | IC50 [30]: 0.193 µM | IC50 [31]: 4.1 µM

SMILES: COc1cc(-c2cnc3c(-c4cccc(N5CCN(C)CC5)c4)cnn3c2N)ccc1NC(=O)OCC(C)C
IC50 [28]: 0.546 µM | IC50 [29]: > 1 µM | IC50 [30]: > 1 µM | IC50 [31]: 9.2 µM

SMILES: CN1CCN(c2ccc(-c3cnn4c(N)c(-c5ccc(NC(=O)CCC6CCCC6)cc5)cnc34)cc2)CC1
IC50 [29]: 0.142 µM | IC50 [30]: 0.014 µM | IC50 [31]: 1.02 µM

SMILES: CC(C)COC(=O)Nc1ccc(-c2cnc3c(-c4cccc(N5CCOCC5)c4)cnn3c2N)cc1
IC50 [28]: 0.699 µM | IC50 [29]: > 1 µM | IC50 [30]: > 1 µM | IC50 [31]: 7.35 µM

SMILES: CC(C)COC(=O)Nc1ccc(-c2cnc3c(-c4cccc(N5CCN(C)CC5)c4)cnn3c2N)cc1
IC50 [29]: 1.71 µM | IC50 [30]: 0.594 µM | IC50 [31]: 5.35 µM | CL [32]: 612.5 µL/min | half-life [33]: 2.3 min
